Results as given in ChEMBL document CHEMBL1128584, “Prediction of drug binding affinities by comparative binding energy analysis” (J Med Chem, 1995).

Each compound was assayed against T1, Phospholipase A2, membrane associated (Homo sapiens) (UniProt P14555) (assay: Inhibitory activity against human synovial fluid phospholipase A2 (HSF-PLA2)). Details: concentration not given here.
T1 sequence (whole entry): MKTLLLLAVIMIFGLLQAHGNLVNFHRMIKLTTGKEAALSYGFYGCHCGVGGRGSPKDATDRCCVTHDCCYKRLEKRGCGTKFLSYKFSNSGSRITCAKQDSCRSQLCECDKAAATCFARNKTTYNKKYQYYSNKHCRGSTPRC
Design: concentration or dose not given beside the values

Point of comparison: CCCCCCCCCCS(=O)(=O)NC(CCCCCC)COP(=O)(O)OCCCC (stereo not given), inhibition 0%. Against it:
- CCCCCCCCCCCC(=O)NC(CCCCCC)COP(=O)(O)OCCOCc1ccccc1 (stereo not given) — higher, 6%
- CCCCCCCCCCCC(=O)NC(CCCCCC)COP(=O)(CCCC)OC (stereo not given) — higher, 24%
- CCCCCCCCCCS(=O)(=O)NC(CCCCCC)COP(=O)(O)OCCOCc1ccccc1 (stereo in doubt; form 2) — higher, 36%
- CCCCCCCCCCS(=O)(=O)N[C@H](CCCCCC)COP(=O)(O)OCCOCc1ccccc1 (stereo in doubt; form 2) — higher, 46%
- CCCCCCCCCCCC(=O)NC(CCCCCC)COP(=O)(O)OCC(N)C(=O)O (stereo not given) — higher, 31%
- CCCCCCCCCCS(=O)(=O)N[C@H](CCCCCC)COP(=O)(O)OCCOCc1ccccc1 (stereo in doubt; form 1) — higher, 45%
- CCCCCCCCCCCC(=O)NC(CCCCCC)COP(=O)(O)OCCO (stereo not given) — higher, 61%
- CCCCCCCCCCC(=O)NC(CCCCCC)COP(=O)(O)OCCN (stereo not given) — higher, 28%
- CCCCCCCCCCS(=O)(=O)NC(CCCCCC)COP(=O)(O)OCCO (stereo in doubt; form 2) — higher, 44%
- CCCCCCCCCCS(=O)(=O)N[C@H](CCCCCC)COP(=O)(O)OCCO — higher, 40%
- CCCCCCCCCCS(=O)(=O)NC(CCCCCC)COS(=O)(=O)CCCOCc1ccccc1 (stereo not given) — higher, 28%
- CCCCCCCCCCS(=O)(=O)N[C@H](CCCCCC)COP(=O)(O)OCCOCc1ccccc1 (stereo in doubt; form 3) — higher, 74%
- CCCCCCCCOCC(COP(=O)(O)OCC[N+](C)(C)C)OP(=O)(O)CCCCCCC (stereo not given) — higher, 9%
- CCCCCCCCCCS(=O)(=O)NC(CCCCCC)COP(=O)(O)CCCC (stereo not given) — higher, 30%
- CCCCCCCCCCS(=O)(=O)CC(CCCCCC)COP(=O)(O)OCCOCc1ccccc1 (stereo in doubt; form 1) — higher, 29%
- CCCCCCCCCCS(=O)(=O)CC(CCCCCC)COP(=O)(O)OCCOCc1ccccc1 (stereo in doubt; form 2) — higher, 79%
- CCCCCCCCCCS(=O)(=O)NC(CCCCCC)COP(=O)(O)OCCO (stereo in doubt; form 1) — higher, 49%
- CCCCCCCCCCS(=O)(=O)NC(CCCCCC)COP(=O)(O)OCCOCc1ccccc1 (stereo in doubt; form 1) — higher, 12%
- CCCCCCCCOCC(COP(=O)(O)OCCN)OP(=O)(O)CCCCCCC (stereo not given) — higher, 33%
- CCCCCCCCCCCC(=O)NC(CCCCCC)COP(=O)(O)OCCCC (stereo not given) — higher, 80%
- CCCCCCCCCCS(=O)(=O)NC(CCCCCC)COCC(F)(F)F (stereo not given) — the same, 0%
- CCCCCCCCCCCC(=O)NC(CCCCCC)COP(=O)(O)CCCC (stereo not given) — higher, 45%
- CCCCCCCCCCS(=O)(=O)NC(CCc1ccccc1)COP(=O)(O)OCCOCc1ccccc1 (stereo not given) — higher, 24%
- CCCCCCCCCCS(=O)(=O)NC(CCCCCC)COP(=O)(O)OCCN (stereo not given) — higher, 4%
